Assay results taken from patent US6057311A, “Benzodiazonine derivatives binding to cholecystokinin or gastrin receptors” (James Black Foundation Limited, priority 1996, dated 2000).

Key:
CCKA = biological target: T1, CCKA (Cavia porcellus, UniProt Q63931); test: CCKA binding assay, guinea pig pancreas membranes ([125I]-CCK8(S)); details: [125I]-CCK8(S) 200 pM, 0.375 μM PD134,308, 150 min at 21±3° C.; for Ki: pH 7.2, read-out: pKi (Guinea pig pancreas) (converted); for pKi (Guinea pig pancreas): pH 7.2
T1 construct: The pancreatata were removed from male guinea-pigs; from tissue; host or cells: pancreas of male Dunkin Hartley guinea pigs, membranes
T1 sequence (Q63931 1-430): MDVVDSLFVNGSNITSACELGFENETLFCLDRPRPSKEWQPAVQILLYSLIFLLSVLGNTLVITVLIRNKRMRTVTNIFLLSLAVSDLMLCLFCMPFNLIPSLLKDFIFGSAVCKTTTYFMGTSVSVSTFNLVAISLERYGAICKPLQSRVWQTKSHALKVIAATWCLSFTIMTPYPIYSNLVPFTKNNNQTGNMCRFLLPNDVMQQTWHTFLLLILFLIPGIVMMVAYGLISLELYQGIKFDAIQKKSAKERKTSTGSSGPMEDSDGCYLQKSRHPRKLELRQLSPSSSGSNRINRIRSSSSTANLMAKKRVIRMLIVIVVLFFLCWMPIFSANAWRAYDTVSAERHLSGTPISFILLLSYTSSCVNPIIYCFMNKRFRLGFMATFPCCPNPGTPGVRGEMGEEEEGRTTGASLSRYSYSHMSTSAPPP
Experimental: The compounds of the examples were also tested in a CCKA binding assay as follows:
The pancreatata were removed from male guinea-pigs (200-300 g; Dunkin Hartley) and placed in ice-cold HEPES buffer (pH 7.2@21±3° C.). The pancreatata were homogenised in 40 ml ice-cold HEPES buffer using a polytron (Brinkmann, PT10, setting 10) 4×1 second. The homogenate was centrifuged at 39,800 g for 15 min at 4° C. The supernatant was discarded and the pellet re-suspended using a Teflon-in-glass homogeniser in 20 volumes of fresh buffer and re-centrifuged as above. The final pellet was re-suspended using a Teflon-in-glass homogeniser to a tissue concentration of 1 mg.ml^-1 (original wet weight), and filtered through 500 μm pore-size Nytex mesh.
The membranes (400 μl; containing 0.375 μM PD134,308) were incubated for 150 minutes at 21±3° C. in a final volume of 0.5 ml with HEPES buffer containing [^125 I]-CCK8 (S) (50 μl; 200 pM) and competing compound. Total and non-specific binding of [^125 I]-CCK8 (S) were defined using 50 μl of buffer and 50 μl of 100 nM L-364,718 respectively. The assay was terminated by rapid filtration through pre-soaked Whatman GF/B filters using a Brandell Cell Harvester. The filters were washed (3×3 ml) with ice-cold 50 mM Tris HCl (pH 7.4 at 4° C.) and bound radioactivity was determined by counting (1 min) in a gamma counter.

CCKB receptor = biological target: T2, CCKB receptor (Mus musculus, UniProt P56481); test: radioligand binding assay at the CCKB receptor in mouse cortical membranes ([125I]-CCK8S); details: [125I]-CCK8S 200 pM, 150 min at 21±3° C.; for Ki: pH 7.2, read-out: pKi (Mouse cortex) (converted); for pKi (Mouse cortex): pH 7.2
T2 construct: The cortex was dissected, weighed and homogenised in 40 ml ice-cold buffer; tissue Charles River (animals); host or cells: cerebral cortex of male CD1 mice, membranes
T2 sequence (P56481 1-453): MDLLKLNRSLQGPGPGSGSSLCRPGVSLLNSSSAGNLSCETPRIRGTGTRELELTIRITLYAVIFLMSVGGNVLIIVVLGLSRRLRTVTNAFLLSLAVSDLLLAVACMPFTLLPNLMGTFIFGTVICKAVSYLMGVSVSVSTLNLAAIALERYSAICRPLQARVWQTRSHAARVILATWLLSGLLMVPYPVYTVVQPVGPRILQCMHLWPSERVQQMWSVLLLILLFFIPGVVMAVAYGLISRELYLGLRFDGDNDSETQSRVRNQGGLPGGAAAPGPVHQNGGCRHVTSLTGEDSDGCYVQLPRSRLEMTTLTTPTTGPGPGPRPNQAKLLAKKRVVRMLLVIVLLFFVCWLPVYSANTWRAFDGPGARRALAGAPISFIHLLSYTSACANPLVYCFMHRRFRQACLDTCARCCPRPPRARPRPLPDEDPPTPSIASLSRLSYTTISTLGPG
Experimental: The compounds of the examples were tested for binding at the CCKB receptor in mouse cortical membranes by means of a radioligand binding assay. The procedure was as follows:
The whole brains from male mice (CD1 22-25 g; Charles River) were removed and placed in ice-cold buffer (pH7.2@21±3° C.) of the following composition (mM); 10 HEPES, 130 NaCl, 4.7 KCl, 5 MgCl2, 1 EDTA and containing 0.25 g.1^-1 bacitracin. The cortex was dissected, weighed and homogenised in 40 ml ice-cold buffer using a Teflon-in-glass homogeniser. The homogenate was centrifuged at 39,800 g for 20 min at 4° C., the supernatant discarded and the pellet resuspended by homogenisation in fresh buffer. The homogenate was recentrifuged (39,800 g; 20 min @4° C.) and the final pellet was resuspended in HEPES buffer to give a tissue concentration of 2 mg.ml^-1 (original wet weight).
The membranes (400 μl) were incubated for 150 min at 21±3° C. in a final volume of 0.5 ml with HEPES buffer containing [^125 I]-CCK8S (0.05 ml; 200 pM NEN 2200 Ci.mmol^-1) and competing compound. Total and non-specific binding of [^125 I]-CCK8S were defined using 0.05 ml of buffer and 0.05 ml of […] L-365,260, respectively. The assay was terminated by rapid filtration through pre-soaked Whatman GF/B filters using a Brandell Cell harvester. The filters were washed (3×3 ml) with ice-cold 50 mM Tris-HCl (pH7.4@4° C.) and bound radioactivity determined by counting (1 min.) in a gamma-counter.

Ki (CCKA) [µM] | Ki (CCKB receptor) [µM] | pKi (Guinea pig pancreas) (CCKA) | pKi (Mouse cortex) (CCKB receptor) | SMILES
10 | 10 | – | – | CC(=O)N1[C@H](C(=O)O)CC(=O)c2ccccc2N(Cc2ccccc2)C(=O)[C@@H]1CC12CC3CC(CC(C3)C1)C2 [Example 12, (3S,5S)-4-acetyl-3-(1-adamantyl)methyl-1-benzyl-2,7-dioxo-2,3,4,5,6,7-hexahydro-1H-1,4-benzodiazonine-5-carboxylate]
3.16 | 2.51 | – | – | COc1cccc(CN2C(=O)[C@@H](CC34CC5CC(CC(C5)C3)C4)N(C(C)=O)[C@H](C(=O)O)CC(=O)c3ccccc32)c1 [Example 13, (3R,5S)-4-acetyl-3-[(1-adamantyl)methyl]-1-(3-methoxy)benzyl-2,7-dioxo-2,3,4,5,6,7-hexahydro-1H-1,4-benzodiazonine-5-carboxylate]
3.16 | 2.51 | – | – | COc1ccc(CN2C(=O)[C@@H](CC34CC5CC(CC(C5)C3)C4)N(C(C)=O)[C@H](C(=O)O)CC(=O)c3ccccc32)cc1 [Example 14, (3R,5S)-4-acetyl-3-[(1-adamantyl)methyl]-1-(4-methoxy)benzyl-2,7-dioxo-2,3,4,5,6,7-hexahydro-1H-1,4-benzodiazonine-5-carboxylate]
1.58 | 1.26 | – | – | CC(=O)N1[C@H](CC23CC4CC(CC(C4)C2)C3)C(=O)N(Cc2cccc(Cl)c2)c2ccccc2C(=O)C[C@H]1C(=O)O [Example 15]
2 | 1.58 | – | – | CC(=O)N1[C@H](CC23CC4CC(CC(C4)C2)C3)C(=O)N(Cc2ccc(Cl)cc2)c2ccccc2C(=O)C[C@H]1C(=O)O [Example 16, (3R,5S)-4-acetyl-3-[(1-adamantyl)methyl]-1-(4-chloro)benzyl-2,7-dioxo-2,3,4,5,6,7-hexahydro-1H-1,4-benzodiazonine-5-carboxylate]
6.31 | 1.26 | – | – | CC(=O)N1[C@H](CC23CC4CC(CC(C4)C2)C3)C(=O)N(Cc2cccc(N)c2)c2ccccc2C(=O)C[C@H]1C(=O)O [Example 17, (3R,5S)-4-acetyl-3-[(1-adamantyl)methyl]-1-(3-amino)benzyl-2,7-dioxo-2,3,4,5,6,7-hexahydro-1H-1,4-benzodiazonine-5-carboxylate]
– | – | 5.4 | 5.5 | COC(=O)[C@@H]1CC(=O)c2ccccc2N(Cc2ccccc2)C(=O)[C@@H](CC23CC4CC(CC(C4)C2)C3)N1C(C)=O [Example 18, (3R,5S)-methyl 4-acetyl-3-[(1-adamantyl)methyl]-1-benzyl-2,7-dioxo-2,3,4,5,6,7-hexahydro-1H-1,4-benzodiazonine-5-carboxylate]
15.8 | 7.94 | – | – | CC(=O)N1[C@H](CC(C)(C)C)C(=O)N(Cc2ccccc2)c2ccccc2C(=O)C[C@H]1C(=O)O [Example 19, (3R,5S)-4-acetyl-1-benzyl-3-(2,2-dimethylpropyl)-2,7-dioxo-2,3,4,5,6,7-hexahydro-1H-1,4-benzodiazonine-5-carboxylate]
3.98 | 3.16 | – | – | O=C1C[C@@H](C(=O)O)N(C(=O)OCc2ccccc2)[C@H](CC23CC4CC(CC(C4)C2)C3)C(=O)N(Cc2ccccc2)c2ccccc21 [Example 20, (3R,5S)-3-(1-adamantyl)methyl-1-benzyl-4-benzyloxycarbonyl-2,7dioxo-2,3,4,5,6,7-hexahydro-1H-1,4-benzodiazonine-5-carboxylate]
6.31 | 7.94 | – | – | CC(=O)N1[C@H](CC23CC4CC(CC(C4)C2)C3)C(=O)N(C)c2ccccc2C(=O)C[C@H]1C(=O)O [Example 21, (3R,5S)-4-acetyl-3-(1-adamantyl)methyl-1-methyl-2,7-dioxo-2;3,4,5,6,7-hexahydro-1H-1,4-benzodiazonine-5-carboxylate]
10 | 0.2 | – | – | CC(=O)N1[C@H](CC23CC4CC(CC(C4)C2)C3)C(=O)N(Cc2ccccc2)c2ccccc2C(=O)C[C@H]1C(=O)NCC(=O)O [Example 22, (3R,5S)-4-acetyl-3-(1-adamantyl)methyl-1-benzyl-5-carboxymethylaminocarbonyl-2,7-dioxo-2,3,4,5,6,7-hexahydro-1H-1,4-benzodiazonine]
10 | 1 | – | – | CC(=O)N1[C@H](CC23CC4CC(CC(C4)C2)C3)C(=O)N(Cc2ccccc2)c2ccccc2C(=O)C[C@H]1C(=O)NCCC(=O)O [Example 23, (3R,5S)-4-acetyl-3-(1-adamantyl)methyl-1-benzyl-5-(2-carboxy)ethylaminocarbonyl-2,7-dioxo-2,3,4,5,6,7-hexahydro-1H-1,4-benzodiazonine]
– | – | 5.0 | 6.9 | CC(=O)N1[C@H](CC23CC4CC(CC(C4)C2)C3)C(=O)N(Cc2ccccc2)c2ccccc2C(=O)C[C@H]1C(=O)N[C@@H](C)C(=O)O [Example 24, (3R,5S)-4-acetyl-3-(1-adamantyl)methyl-1-benzyl-5-[(1S)-carboxy]ethylaminocarbonyl-2,7-dioxo-2,3,4,5,6,7-hexahydro-1H-1,4-benzodiazonine]
6.31 | 0.398 | – | – | CC(=O)N1[C@H](CC23CC4CC(CC(C4)C2)C3)C(=O)N(Cc2ccccc2)c2ccccc2C(=O)C[C@H]1C(=O)N[C@H](C)C(=O)O [Example 25, (3R,5S)-4-acetyl-3-(1-adamantyl)methyl-1-benzyl-5-[(1R)-carboxy]ethylaminocarbonyl-2,7-dioxo-2,3,4,5,6,7-hexahydro-1H-1,4-benzodiazonine]
6.31 | 1 | – | – | CC(=O)N1[C@H](CC23CC4CC(CC(C4)C2)C3)C(=O)N(Cc2ccccc2)c2ccccc2C(=O)C[C@H]1C(=O)NC(C)(C)C(=O)O [Example 26, (3R,5S)-4-acetyl-3-(1-adamantyl)methyl-1-benzyl-5-(1-carboxy-1-methyl)ethylaminocarbonyl-2,7-dioxo-2,3,4,5,6,7-hexahydro-1H-1,4-benzodiazonine]
6.31 | 1.58 | – | – | COc1ccc(CN2C(=O)[C@@H](CC34CC5CC(CC(C5)C3)C4)N(C(C)=O)[C@H](C(=O)Nc3cc(C(=O)O)cc(C(=O)O)c3)CC(=O)c3ccccc32)cc1 [Example 31]
